Measured values taken from ChEMBL document CHEMBL1148255, “Facile synthesis of fused 1,2,4-triazolo[1,5-c]pyrimidine derivatives as human adenosine A3 receptor ligands” (Bioorg Med Chem Lett, 2004).

Molecular target: Adenosine receptor A2a (Homo sapiens, UniProt P29274)
Assay: biochemical

Adenosine receptor A2a, sequence (P29274 whole entry): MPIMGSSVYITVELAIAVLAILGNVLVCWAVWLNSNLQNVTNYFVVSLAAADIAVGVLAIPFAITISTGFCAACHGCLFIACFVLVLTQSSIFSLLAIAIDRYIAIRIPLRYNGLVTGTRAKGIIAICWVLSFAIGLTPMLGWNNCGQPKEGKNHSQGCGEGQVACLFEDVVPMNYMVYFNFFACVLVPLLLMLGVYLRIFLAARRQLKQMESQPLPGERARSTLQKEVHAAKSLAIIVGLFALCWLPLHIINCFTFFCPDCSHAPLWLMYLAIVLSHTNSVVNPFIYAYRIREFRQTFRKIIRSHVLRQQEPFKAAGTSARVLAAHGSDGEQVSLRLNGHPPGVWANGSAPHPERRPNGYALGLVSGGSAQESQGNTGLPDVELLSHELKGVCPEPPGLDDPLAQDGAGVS

IC50 [nM] | SMILES
> 10000 | CCCCc1nc2[nH]cnc2c2nc(-c3ccc(C(F)(F)F)cc3)nn12
